Measured values as given in ChEMBL document CHEMBL1909046, “DrugMatrix in vitro pharmacology data”.

What was measured:
[1] = DRUGMATRIX: Sodium/nucleoside co-transporter radioligand binding (ligand: nitrobenzylthioinosine); type: cell membranes, Cavia porcellus, Dunkin-Hartley, Cerebral cortex, Membrane; settings: Not Active = under 50% inhibition at 10 µM
D(4) dopamine receptor = molecular target: T1, D(4) dopamine receptor (Homo sapiens, UniProt P21917); assay: DRUGMATRIX: Dopamine D4.2 radioligand binding (ligand: [3H] Spiperone); type: cell membranes, CHO-K1, Membrane; settings: cho-k1; Not Active = under 50% inhibition at 10 µM
T1 sequence (P21917 whole entry): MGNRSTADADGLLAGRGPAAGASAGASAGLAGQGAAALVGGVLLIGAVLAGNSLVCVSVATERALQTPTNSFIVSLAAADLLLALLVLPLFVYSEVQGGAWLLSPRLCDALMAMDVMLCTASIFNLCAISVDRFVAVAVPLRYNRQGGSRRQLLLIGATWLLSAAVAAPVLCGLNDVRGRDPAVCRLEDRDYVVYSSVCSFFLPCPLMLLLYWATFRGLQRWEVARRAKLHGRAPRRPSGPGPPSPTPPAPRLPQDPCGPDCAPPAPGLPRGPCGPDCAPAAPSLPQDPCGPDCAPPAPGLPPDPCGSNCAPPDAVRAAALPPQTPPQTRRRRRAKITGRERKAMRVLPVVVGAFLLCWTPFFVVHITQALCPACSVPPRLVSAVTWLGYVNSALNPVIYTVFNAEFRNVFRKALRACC

[2] = molecular target: T2, Polyunsaturated fatty acid lipoxygenase ALOX15 (Oryctolagus cuniculus, UniProt P12530); assay: biochemical; type: tissue-based, Reticulocytes; settings: reticulocytes;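 further: inhibition of 15-lipoxygenase enzyme activity measured with linoleic acid as the substrate; in other assays of this panel Not Active means under 50% inhibition at 10 µM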
T2 sequence (P12530 whole entry): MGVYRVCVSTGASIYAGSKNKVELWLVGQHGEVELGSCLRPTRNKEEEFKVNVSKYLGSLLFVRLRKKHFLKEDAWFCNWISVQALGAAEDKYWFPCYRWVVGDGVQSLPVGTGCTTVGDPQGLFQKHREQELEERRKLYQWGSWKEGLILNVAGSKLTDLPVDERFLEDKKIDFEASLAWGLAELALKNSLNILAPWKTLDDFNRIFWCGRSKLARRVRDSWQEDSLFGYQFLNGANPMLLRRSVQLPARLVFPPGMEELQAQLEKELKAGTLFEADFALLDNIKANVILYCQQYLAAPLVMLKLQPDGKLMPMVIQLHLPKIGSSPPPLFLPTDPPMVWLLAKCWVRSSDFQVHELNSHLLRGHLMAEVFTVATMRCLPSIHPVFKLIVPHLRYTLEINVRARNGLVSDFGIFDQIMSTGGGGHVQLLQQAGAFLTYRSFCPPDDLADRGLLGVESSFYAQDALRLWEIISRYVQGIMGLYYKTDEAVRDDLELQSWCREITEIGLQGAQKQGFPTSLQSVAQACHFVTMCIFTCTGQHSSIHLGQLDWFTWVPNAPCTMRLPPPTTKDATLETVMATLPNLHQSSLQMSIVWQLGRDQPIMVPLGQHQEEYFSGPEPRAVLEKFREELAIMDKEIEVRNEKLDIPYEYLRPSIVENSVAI

Substance-P receptor = Substance-P receptor (Homo sapiens, UniProt P25103); type: cell membranes, CHO, Membrane; settings: cho; further: in other assays of this panel Not Active means under 50% inhibition at 10 µM
Substance-P receptor, sequence (P25103 whole entry): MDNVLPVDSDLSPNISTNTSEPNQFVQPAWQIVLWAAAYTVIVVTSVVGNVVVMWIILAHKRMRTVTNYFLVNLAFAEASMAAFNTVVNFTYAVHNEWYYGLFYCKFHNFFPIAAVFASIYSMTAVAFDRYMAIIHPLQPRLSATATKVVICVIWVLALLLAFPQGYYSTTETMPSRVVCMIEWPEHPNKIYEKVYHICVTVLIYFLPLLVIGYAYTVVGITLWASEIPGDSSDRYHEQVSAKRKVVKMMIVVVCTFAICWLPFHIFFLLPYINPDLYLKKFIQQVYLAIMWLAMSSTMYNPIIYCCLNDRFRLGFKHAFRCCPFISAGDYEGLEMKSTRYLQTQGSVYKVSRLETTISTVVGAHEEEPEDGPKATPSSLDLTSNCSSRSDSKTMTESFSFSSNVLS

[3] = DRUGMATRIX: Serotonin (5-Hydroxytryptamine) 5-HT3 radioligand binding (ligand: [3H] GR-65630); type: cell membranes, Membrane; settings: hek293; Not Active = under 50% inhibition at 10 µM
[4] = DRUGMATRIX: Purinergic P2X radioligand binding (ligand: [3H] alpha, beta-Methylene-ATP); type: cell membranes, Oryctolagus cuniculus, New Zealand albino, Urinary bladder, Membrane; settings: Not Active = under 50% inhibition at 10 µM
[5] = molecular target: Delta-type opioid receptor (Homo sapiens, UniProt P41143); type: cell membranes, HEK293, Membrane; settings: hek293; further: in other assays of this panel Not Active means under 50% inhibition at 10 µM
Delta-type opioid receptor, sequence (P41143 whole entry): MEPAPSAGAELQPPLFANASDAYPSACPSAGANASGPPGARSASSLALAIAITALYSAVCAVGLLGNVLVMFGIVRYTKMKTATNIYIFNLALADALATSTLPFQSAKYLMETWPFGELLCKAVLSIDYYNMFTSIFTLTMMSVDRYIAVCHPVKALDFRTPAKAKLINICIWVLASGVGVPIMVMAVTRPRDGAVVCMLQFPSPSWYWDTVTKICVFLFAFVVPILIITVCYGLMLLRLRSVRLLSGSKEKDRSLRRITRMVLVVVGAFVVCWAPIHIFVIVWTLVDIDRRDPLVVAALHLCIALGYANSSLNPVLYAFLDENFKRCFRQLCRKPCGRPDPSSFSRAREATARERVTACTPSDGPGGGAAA

Cannabinoid receptor 1 = Cannabinoid receptor 1 (Homo sapiens, UniProt P21554); type: cell membranes, Chem-1, Membrane; settings: chem-1; further: in other assays of this panel Not Active means under 50% inhibition at 10 µM
Cannabinoid receptor 1, sequence (P21554 whole entry): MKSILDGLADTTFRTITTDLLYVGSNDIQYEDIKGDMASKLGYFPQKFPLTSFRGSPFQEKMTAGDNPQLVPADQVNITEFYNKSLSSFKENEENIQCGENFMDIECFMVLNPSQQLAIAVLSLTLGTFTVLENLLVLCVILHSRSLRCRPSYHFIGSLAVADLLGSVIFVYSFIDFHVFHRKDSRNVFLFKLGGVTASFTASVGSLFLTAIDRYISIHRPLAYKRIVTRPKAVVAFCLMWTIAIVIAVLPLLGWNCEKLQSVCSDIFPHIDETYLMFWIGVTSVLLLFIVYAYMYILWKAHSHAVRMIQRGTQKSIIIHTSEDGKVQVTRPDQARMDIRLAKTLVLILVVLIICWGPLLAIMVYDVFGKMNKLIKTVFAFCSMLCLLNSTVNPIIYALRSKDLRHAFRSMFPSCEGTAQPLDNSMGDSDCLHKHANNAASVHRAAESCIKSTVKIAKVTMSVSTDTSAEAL

CO/N=C(\C(=O)N[C@@H]1C(=O)N2C(C(=O)O)=C(COC(C)=O)CS[C@H]12)c1csc(N)n1 [CEFOTAXIME]
Not Active: IC50 [1] | Ki [1] | IC50 (D(4) dopamine receptor) | IC50 [2] | IC50 (Substance-P receptor) | IC50 [3] | Ki [3] | IC50 [4] | Ki [4] | IC50 [5] | IC50 (Cannabinoid receptor 1)

CNC1=Nc2ccc(Cl)cc2C(c2ccccc2)=[N+]([O-])C1 [CHLORDIAZEPOXIDE]
Not Active: IC50 [1] | Ki [1] | IC50 (D(4) dopamine receptor) | IC50 [2] | IC50 (Substance-P receptor) | IC50 [3] | Ki [3] | IC50 [4] | Ki [4] | IC50 [5] | IC50 (Cannabinoid receptor 1)

Cc1cc(O)cc(C)c1Cl [CHLOROXYLENOL]
Not Active: IC50 [1] | Ki [1] | IC50 (D(4) dopamine receptor) | IC50 [2] | IC50 (Substance-P receptor) | IC50 [3] | Ki [3] | IC50 [4] | Ki [4] | IC50 [5] | IC50 (Cannabinoid receptor 1)

CCCNC(=O)NS(=O)(=O)c1ccc(Cl)cc1 [CHLORPROPAMIDE]
Not Active: IC50 [1] | Ki [1] | IC50 (D(4) dopamine receptor) | IC50 [2] | IC50 (Substance-P receptor) | IC50 [3] | Ki [3] | IC50 [4] | Ki [4] | IC50 [5] | IC50 (Cannabinoid receptor 1)

NS(=O)(=O)c1cc(C2(O)NC(=O)c3ccccc32)ccc1Cl (stereo unspecified) [CHLORTHALIDONE]
Not Active: IC50 [1] | Ki [1] | IC50 (D(4) dopamine receptor) | IC50 [2] | IC50 (Substance-P receptor) | IC50 [3] | Ki [3] | IC50 [4] | Ki [4] | IC50 [5] | IC50 (Cannabinoid receptor 1)

O=C(O)CC(O)(CC(=O)O)C(=O)O [CITRIC ACID]
Not Active: IC50 [1] | Ki [1] | IC50 (D(4) dopamine receptor) | IC50 [2] | IC50 (Substance-P receptor) | IC50 [3] | Ki [3] | IC50 [4] | Ki [4] | IC50 [5] | IC50 (Cannabinoid receptor 1)

CC(C)NCC(O)c1ccccc1Cl (stereo unspecified) [CLORPRENALINE]
Not Active: IC50 [1] | Ki [1] | IC50 (D(4) dopamine receptor) | IC50 [2] | IC50 (Substance-P receptor) | IC50 [3] | Ki [3] | IC50 [4] | Ki [4] | IC50 [5] | IC50 (Cannabinoid receptor 1)

CN1CCN(C(c2ccccc2)c2ccccc2)CC1 [CYCLIZINE]
Not Active: IC50 [1] | Ki [1] | IC50 (D(4) dopamine receptor) | IC50 [2] | IC50 (Substance-P receptor) | IC50 [3] | Ki [3] | IC50 [4] | Ki [4] | IC50 [5] | IC50 (Cannabinoid receptor 1)

CN1C[C@@H]2C[C@H]1CN2c1cc2c(cc1F)c(=O)c(C(=O)O)cn2C1CC1 [DANOFLOXACIN]
Not Active: IC50 [1] | Ki [1] | IC50 (D(4) dopamine receptor) | IC50 [2] | IC50 (Substance-P receptor) | IC50 [3] | Ki [3] | IC50 [4] | Ki [4] | IC50 [5] | IC50 (Cannabinoid receptor 1)

COc1cccc2c1C(=O)c1c(O)c3c(c(O)c1C2=O)C[C@@](O)(C(C)=O)C[C@@H]3O[C@H]1C[C@H](N)[C@H](O)[C@H](C)O1 [DAUNORUBICIN]
Not Active: IC50 [1] | Ki [1] | IC50 (D(4) dopamine receptor) | IC50 [2] | IC50 (Substance-P receptor) | IC50 [3] | Ki [3] | IC50 [4] | Ki [4] | IC50 [5] | IC50 (Cannabinoid receptor 1)

O=C(O)c1cc(-c2ccc(F)cc2F)ccc1O [DIFLUNISAL]
Not Active: IC50 [1] | Ki [1] | IC50 (D(4) dopamine receptor) | IC50 [2] | IC50 (Substance-P receptor) | IC50 [3] | Ki [3] | IC50 [4] | Ki [4] | IC50 [5] | IC50 (Cannabinoid receptor 1)
